Measurements reported in ChEMBL document CHEMBL5661979, “Pharmacological inhibition of BMK1 suppresses tumor growth through promyelocytic leukemia protein” (Cancer Cell, 2010).

Tests used:
[1] = target: Mitogen-activated protein kinase 4 (Homo sapiens, UniProt P31152); test: Inhibition of ERK4 in human HeLa cells lysate pre incubated for 15 mins followed by ATP acyl phosphate probe addition and measured after 10 mins by LC-MS/MS analysis; assay type: subcellular
[2] = Toxicity in C57Bl/6 mouse assessed as effect on globulin level at 50 mg/kg, ip for 14 days (reference value: 2.3 g/dl); assay type: organism-based; conditions: in vivo, 336 h, time 14 day
[3] = target: Tyrosine-protein kinase CSK (Homo sapiens, UniProt P41240); test: Inhibition of CSK in human HeLa cells lysate pre incubated for 15 mins followed by ADP acyl phosphate probe addition and measured after 10 mins by LC-MS/MS analysis; assay type: subcellular
[4] = target: Protein kinase C zeta type (Homo sapiens, UniProt Q05513); test: Inhibition of PKCzeta in human HeLa cells lysate pre incubated for 15 mins followed by ADP acyl phosphate probe addition and measured after 10 mins by LC-MS/MS analysis; assay type: subcellular
[5] = target: Glycogen synthase kinase-3 beta (Homo sapiens, UniProt P49841); test: Inhibition of GSK3B isoform 2 in human HeLa cells lysate pre incubated for 15 mins followed by ADP acyl phosphate probe addition and measured after 10 mins by LC-MS/MS analysis; assay type: subcellular
[6] = target: T1, Interleukin-1 receptor-associated kinase 4 (Homo sapiens) (UniProt Q9NWZ3); test: Inhibition of IRAK4 in human HeLa cells lysate at 50 uM pre incubated for 15 mins followed by ADP acyl phosphate probe addition and measured after 10 mins by LC-MS/MS analysis relative to control; assay type: subcellular; conditions: time 25.0 min
T1 sequence (whole entry): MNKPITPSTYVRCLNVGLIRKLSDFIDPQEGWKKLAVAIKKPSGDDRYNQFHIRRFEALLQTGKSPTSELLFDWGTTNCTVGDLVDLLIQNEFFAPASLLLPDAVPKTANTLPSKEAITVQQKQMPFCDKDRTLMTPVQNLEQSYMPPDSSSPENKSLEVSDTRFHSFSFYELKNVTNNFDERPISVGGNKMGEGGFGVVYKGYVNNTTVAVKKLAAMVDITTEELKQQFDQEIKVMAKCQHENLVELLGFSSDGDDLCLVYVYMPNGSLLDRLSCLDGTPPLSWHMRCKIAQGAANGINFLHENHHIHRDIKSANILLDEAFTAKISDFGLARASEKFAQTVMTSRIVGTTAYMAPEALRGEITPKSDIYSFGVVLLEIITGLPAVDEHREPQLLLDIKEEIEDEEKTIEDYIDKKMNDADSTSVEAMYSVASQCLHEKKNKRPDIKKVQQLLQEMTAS

[7] = Inhibition of MAP3K5/MAP3K6/MAP3K15 in human HeLa cells lysate at 10 uM pre incubated for 15 mins followed by ATP acyl phosphate probe addition and measured after 10 mins by LC-MS/MS analysis relative to control; conditions: 25 min, condition cancer
[8] = Inhibition of PRKX/PRKY in human HeLa cells lysate pre incubated for 15 mins followed by ADP acyl phosphate probe addition and measured after 10 mins by LC-MS/MS analysis; assay type: subcellular
[9] = target: Dual specificity mitogen-activated protein kinase kinase 3 (Homo sapiens, UniProt P46734); test: Inhibition of MAP2K3 in human HeLa cells lysate pre incubated for 15 mins followed by ADP acyl phosphate probe addition and measured after 10 mins by LC-MS/MS analysis; assay type: subcellular
[10] = target: MAP/microtubule affinity-regulating kinase 3 (Homo sapiens, UniProt P27448); test: Inhibition of MARK3 in human HeLa cells lysate at 50 uM pre incubated for 15 mins followed by ADP acyl phosphate probe addition and measured after 10 mins by LC-MS/MS analysis relative to control; assay type: subcellular; conditions: time 25.0 min
[11] = target: T2, Serine/threonine-protein kinase TAO2 (Homo sapiens) (UniProt Q9UL54); test: Inhibition of TAO2 in human HeLa cells lysate at 2 uM pre incubated for 15 mins followed by ATP acyl phosphate probe addition and measured after 10 mins by LC-MS/MS analysis relative to control; assay type: subcellular; conditions: time 25.0 min
T2 sequence (whole entry): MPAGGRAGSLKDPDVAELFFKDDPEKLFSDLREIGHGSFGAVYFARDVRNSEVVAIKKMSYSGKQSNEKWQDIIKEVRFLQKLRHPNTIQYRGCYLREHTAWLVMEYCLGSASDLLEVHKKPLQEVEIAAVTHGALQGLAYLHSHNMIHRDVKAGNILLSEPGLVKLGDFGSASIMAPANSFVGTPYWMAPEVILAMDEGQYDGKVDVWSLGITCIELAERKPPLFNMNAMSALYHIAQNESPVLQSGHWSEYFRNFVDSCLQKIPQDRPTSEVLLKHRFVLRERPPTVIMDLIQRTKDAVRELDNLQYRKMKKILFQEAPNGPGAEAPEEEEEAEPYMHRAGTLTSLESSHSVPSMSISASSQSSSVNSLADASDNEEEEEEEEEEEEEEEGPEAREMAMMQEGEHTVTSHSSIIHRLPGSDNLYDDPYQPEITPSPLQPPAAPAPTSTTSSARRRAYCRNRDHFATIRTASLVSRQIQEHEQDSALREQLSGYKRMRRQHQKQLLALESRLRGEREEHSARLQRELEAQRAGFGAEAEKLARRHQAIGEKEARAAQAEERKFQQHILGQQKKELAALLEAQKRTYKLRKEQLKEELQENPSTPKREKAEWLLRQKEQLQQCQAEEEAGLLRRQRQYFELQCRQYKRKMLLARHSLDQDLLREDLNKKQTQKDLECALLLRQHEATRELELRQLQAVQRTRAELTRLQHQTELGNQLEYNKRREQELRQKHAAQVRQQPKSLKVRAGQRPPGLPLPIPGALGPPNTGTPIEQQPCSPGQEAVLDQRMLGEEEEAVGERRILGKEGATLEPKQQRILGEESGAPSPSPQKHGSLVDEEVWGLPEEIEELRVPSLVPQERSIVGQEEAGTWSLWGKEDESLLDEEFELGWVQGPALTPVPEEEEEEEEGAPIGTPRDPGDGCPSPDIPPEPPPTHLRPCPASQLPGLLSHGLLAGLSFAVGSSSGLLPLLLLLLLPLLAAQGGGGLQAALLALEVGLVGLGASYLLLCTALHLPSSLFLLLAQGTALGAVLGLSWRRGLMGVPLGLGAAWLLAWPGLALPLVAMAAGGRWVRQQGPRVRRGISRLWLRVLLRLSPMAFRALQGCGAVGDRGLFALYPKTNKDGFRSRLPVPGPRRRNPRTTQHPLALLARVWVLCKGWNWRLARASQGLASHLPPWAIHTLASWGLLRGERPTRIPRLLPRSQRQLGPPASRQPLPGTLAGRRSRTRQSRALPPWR

Mitogen-activated protein kinase 4, sequence (P31152 whole entry): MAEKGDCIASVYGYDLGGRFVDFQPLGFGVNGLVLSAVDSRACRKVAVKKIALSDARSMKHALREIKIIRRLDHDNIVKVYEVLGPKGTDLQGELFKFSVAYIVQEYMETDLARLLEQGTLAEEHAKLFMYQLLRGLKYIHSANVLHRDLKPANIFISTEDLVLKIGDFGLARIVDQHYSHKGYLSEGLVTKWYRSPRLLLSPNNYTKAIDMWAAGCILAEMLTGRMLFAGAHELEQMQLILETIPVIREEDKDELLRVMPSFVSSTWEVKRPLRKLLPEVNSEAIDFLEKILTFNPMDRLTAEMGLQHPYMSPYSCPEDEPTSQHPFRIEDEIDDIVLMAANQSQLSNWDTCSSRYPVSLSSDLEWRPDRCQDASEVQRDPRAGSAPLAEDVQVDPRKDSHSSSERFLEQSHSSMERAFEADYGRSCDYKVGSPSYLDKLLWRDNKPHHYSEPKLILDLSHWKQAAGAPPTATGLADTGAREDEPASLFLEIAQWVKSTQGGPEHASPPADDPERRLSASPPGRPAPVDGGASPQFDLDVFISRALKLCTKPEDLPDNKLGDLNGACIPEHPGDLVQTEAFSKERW
Glycogen synthase kinase-3 beta, sequence (P49841 whole entry, canonical isoform): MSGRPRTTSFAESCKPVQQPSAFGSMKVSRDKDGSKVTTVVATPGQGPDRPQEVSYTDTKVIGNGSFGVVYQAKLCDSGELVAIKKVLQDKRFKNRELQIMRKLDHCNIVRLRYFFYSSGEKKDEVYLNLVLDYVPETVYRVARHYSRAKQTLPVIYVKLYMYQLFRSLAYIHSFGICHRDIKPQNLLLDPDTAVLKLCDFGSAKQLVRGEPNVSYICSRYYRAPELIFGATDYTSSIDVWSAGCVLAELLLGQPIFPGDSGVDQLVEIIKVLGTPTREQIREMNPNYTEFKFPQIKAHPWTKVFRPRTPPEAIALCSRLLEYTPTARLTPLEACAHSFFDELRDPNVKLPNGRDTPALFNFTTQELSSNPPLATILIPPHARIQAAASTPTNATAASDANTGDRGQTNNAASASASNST
Dual specificity mitogen-activated protein kinase kinase 3, sequence (P46734 whole entry): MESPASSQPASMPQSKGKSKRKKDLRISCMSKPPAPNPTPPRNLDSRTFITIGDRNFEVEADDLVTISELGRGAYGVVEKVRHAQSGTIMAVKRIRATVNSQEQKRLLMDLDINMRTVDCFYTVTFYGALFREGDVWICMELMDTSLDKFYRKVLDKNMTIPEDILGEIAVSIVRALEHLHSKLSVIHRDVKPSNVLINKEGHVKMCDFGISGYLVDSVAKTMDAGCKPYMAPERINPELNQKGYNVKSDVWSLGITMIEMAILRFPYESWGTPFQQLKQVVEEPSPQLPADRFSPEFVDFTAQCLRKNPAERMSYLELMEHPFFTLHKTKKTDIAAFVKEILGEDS
Tyrosine-protein kinase CSK, sequence (P41240 whole entry): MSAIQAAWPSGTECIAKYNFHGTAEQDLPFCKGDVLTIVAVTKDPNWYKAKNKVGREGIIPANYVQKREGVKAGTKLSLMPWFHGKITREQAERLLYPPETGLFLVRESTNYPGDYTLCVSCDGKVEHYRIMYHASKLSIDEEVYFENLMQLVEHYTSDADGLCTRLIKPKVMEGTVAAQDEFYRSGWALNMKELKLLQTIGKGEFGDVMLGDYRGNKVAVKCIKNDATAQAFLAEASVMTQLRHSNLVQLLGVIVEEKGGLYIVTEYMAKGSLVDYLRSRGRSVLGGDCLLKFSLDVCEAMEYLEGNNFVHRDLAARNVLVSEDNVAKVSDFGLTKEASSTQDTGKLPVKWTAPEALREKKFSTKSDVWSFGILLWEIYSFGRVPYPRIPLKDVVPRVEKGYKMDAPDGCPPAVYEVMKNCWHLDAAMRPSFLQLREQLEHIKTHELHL
MAP/microtubule affinity-regulating kinase 3, sequence (P27448 whole entry, looked up): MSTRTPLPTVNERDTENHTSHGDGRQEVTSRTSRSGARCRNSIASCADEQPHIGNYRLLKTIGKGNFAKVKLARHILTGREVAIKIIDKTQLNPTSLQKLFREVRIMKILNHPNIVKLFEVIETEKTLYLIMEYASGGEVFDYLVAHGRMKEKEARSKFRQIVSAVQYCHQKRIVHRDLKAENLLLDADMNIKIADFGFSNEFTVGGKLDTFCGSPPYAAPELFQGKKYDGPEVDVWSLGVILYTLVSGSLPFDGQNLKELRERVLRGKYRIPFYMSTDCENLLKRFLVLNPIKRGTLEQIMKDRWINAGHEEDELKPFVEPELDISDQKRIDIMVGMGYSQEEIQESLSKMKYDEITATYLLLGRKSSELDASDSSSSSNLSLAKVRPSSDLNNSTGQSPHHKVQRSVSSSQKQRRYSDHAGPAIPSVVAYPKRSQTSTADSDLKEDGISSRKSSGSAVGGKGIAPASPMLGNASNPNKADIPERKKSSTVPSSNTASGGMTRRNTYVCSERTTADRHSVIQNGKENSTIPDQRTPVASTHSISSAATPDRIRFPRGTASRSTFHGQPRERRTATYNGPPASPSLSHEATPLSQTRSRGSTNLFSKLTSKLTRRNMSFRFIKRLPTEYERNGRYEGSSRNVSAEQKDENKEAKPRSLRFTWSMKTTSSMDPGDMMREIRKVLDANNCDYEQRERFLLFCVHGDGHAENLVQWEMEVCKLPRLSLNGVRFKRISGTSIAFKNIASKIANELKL
Protein kinase C zeta type, sequence (Q05513 whole entry, canonical isoform): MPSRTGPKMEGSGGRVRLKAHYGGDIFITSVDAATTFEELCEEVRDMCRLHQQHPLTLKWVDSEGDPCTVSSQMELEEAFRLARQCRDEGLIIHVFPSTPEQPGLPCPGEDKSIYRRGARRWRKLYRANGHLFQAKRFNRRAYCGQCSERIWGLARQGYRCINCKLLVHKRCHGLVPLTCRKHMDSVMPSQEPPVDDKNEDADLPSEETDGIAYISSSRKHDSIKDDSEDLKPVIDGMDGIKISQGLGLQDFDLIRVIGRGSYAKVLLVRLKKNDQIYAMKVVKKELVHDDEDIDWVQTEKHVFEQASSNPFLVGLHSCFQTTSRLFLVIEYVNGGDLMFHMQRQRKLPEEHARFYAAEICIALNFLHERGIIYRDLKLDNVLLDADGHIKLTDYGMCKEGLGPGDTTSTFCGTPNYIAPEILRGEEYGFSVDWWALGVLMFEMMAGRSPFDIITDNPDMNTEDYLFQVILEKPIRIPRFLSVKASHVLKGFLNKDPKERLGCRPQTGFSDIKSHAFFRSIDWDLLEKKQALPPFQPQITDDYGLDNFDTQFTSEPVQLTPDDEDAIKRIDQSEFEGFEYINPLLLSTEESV

`CCOc1cc(N2CCC(O)CC2)ccc1Nc1ncc2c(n1)N(C)c1ccccc1C(=O)N2C` gave an IC50 [1] of over 50 µM, an Activity [2] of 2.5 g/dL and an IC50 [3] of over 50 µM. For the same molecule, the IC50 [4] was over 50 µM, the IC50 [5] was over 50 µM and the inhibition [6] was -0.4%. It also gave an inhibition at 10 µM [7] of 1.4%, an IC50 [8] of over 50 µM and an IC50 [9] of over 50 µM. It also gave an inhibition [10] of -3.3% and an inhibition [11] of -8.5%.
